# According to patent US20110105626A1, “USE OF CYCLOHEXANEHEXOL DERIVATIVES FOR THE TREATMENT OF POLYGLUTAMINE DISEASES” (priority 2007, published 2011):
# “Also recorded” adds a separate entry of the source.
# What was measured:
# Assay type in all cases: cell-based
# HttQ103P-EGFP = molecular target: T1, HttQ103P-EGFP (Homo sapiens, UniProt P42858); test: Aggregation of HttQ103P-EGFP in inducible PC-12 cells (visual counts by fluorescent microscopy)
# T1 construct: expressed in transfected cells; host or cells: PC-12 cells, stably transfected, pIND construct induced with 5 µM ponasterone
# Procedure: (§1) Inducible PC-12 cells. PC-12 cells stably transfected with pIND constructs containing HttQ103P-EGFP. The cells upon stimulation with 5 μM ponasterone for 48 hrs express poly-Q protein with a EGFP carboxy-terminal epitope tag (Apostol, B. et al., PNAS 100, 5950-5955, 2003). Chemical Compound screen in PC-12 cells. Cells were plated in 6 well plates and grown overnight, then treated with 5 μM ponasterone for 48 hrs in the presence and absence of cystamine bitartrate or scyllo-inositol. Both were dissolved in water, and added directly to cultures at a final concentration of 1-50 μM and aggregation calculated. Visual counts of aggregates and EGFP-positive cells were performed using fluorescent microscopy. At least 300 cells were counted from 5-6 fields in three wells in each of three independent experiments. Aggregation is expressed as the percentage of cells with aggregates versus total number of EGFP-positive cells. Chemical compound was assessed for cellular toxicity by evaluating cell morphology, trypan blue exclusion and cell viability. Protein Expression. Cells were plated in 6 well plates and grown overnight, then treated with 5 μM ponasterone for 48 hrs in the presence and absence of cystamine bitartrate or scyllo-inositol. Cells were lysed in hypotonic solution containing 20 mM HEPES ph 7.5, 5 mM NaCl, 10 mM NaF, 2 mM EDTA, 1% Nonidet P-40, 1 mM sodium, orthovanadate, and protease inhibitors. Protein concentration was determined using the Bradford assay and 100 μg of protein was used for western blotting. Primary antibody to poly-glutamine was used to detect HttQ103, while GAPDH was used as an internal house-keeping standard. Westerns were scanned and densitometry was used to quantify PolyQ expression.
# A hallmark of polyglutamine diseases is the accumulation of intracellular aggregates in the cytosol and nucleus of neurons. Therefore, the inducible PC-12 cell lines were utilized to address the question of inhibition of HttQ103P-EFGP aggregation using scyllo-inositol and a previously identified aggregation inhibitor, cystamine bitartrate. Aggregates are readily distinguished from soluble Htt, by intense small aggregate formation versus diffuse cellular staining pattern of soluble Htt (FIG. 1). Simultaneously with induction of HttQ103P-EFGP expression, scyllo-inositol was added to the cells in a final concentration range from 0-100 μM, with 50 μM cystamine bitartrate as a positive control. Cells were photographed using fluorescence microscopy and total cells expressing EFGP counted, and cells containing aggregates. Efficacy of treatment was determined by a reduction in the percentage of cells containing EGFP aggregates (FIG. 1, 2).
# Htt103Q-EGFP = molecular target: T2, Htt103Q-EGFP (Homo sapiens, UniProt P42858); test: Western blot of poly-Q protein expression in inducible PC-12 cells, normalized to GAPDH; conditions: for Htt103Q-EGFP protein expression level (western blot): cystamine bitartrate treatment
# T2 construct: expressed in transfected cells; host or cells: PC-12 cells, stably transfected, pIND construct induced with 5 µM ponasterone
# Procedure: as §1
# In order to examine changes in Htt103Q-EGFP protein concentration as a function of scyllo-inositol treatment, western blots were used (FIG. 3, 4). Cells were treated as above and then harvested for western blot analyses using a poly-glutamine specific antibody, and normalized to the housekeeping protein, GAPDH (FIG. 3). Blots were scanned and densitometry of each lane performed, to normalize for variations in protein loading pixels were normalized to those of GAPDH.
# PC-12 cells = system: PC-12 cells
# Procedure: as §1, with “Visual counts of aggregates and EGFP-positive cells were performed using fluorescent microscopy.” left out, “Protein Expression. Cells were plated in 6 well plates and grown overnight, then treated with 5 μM ponasterone for 48 hrs in the presence and absence of cystamine bitartrate or scyllo-inositol. Cells were lysed in hypotonic solution containing 20 mM HEPES ph 7.5, 5 mM NaCl, 10 mM NaF, 2 mM EDTA, 1% Nonidet P-40, 1 mM sodium, orthovanadate, and protease inhibitors.” left out, “Primary antibody to poly-glutamine was used to detect HttQ103, while GAPDH was used as an internal house-keeping standard.” left out
# A hallmark of polyglutamine diseases is the accumulation of intracellular aggregates in the cytosol and nucleus of neurons. […] Cells were photographed using fluorescence microscopy and total cells expressing EFGP counted, and cells containing aggregates. […]
# T1 sequence (P42858 with tags, fused parts or gaps limits assumed): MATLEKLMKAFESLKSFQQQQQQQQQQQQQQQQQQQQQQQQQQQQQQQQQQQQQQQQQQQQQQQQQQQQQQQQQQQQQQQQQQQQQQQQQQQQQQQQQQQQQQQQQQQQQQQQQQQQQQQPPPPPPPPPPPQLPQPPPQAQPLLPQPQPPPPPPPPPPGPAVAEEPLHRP
# T2 sequence (P42858 with tags, fused parts or gaps limits assumed): as above
Htt103Q-EGFP protein expression level (western blot) (Htt103Q-EGFP; listed as Cystamine bitratrate),Concentrations at which aggregation of poly-Q repeat Htt is decreased (HttQ103P-EGFP; inducible PC-12 cells) [µM],"Lowest concentration with significant decrease in the formation of aggregates (HttQ103P-EGFP; inducible PC-12 cells, FIG. 2) [µM]","Concentrations at which poly-Q (Htt) protein is decreased / mutant Htt degradation is enhanced (Htt103Q-EGFP; inducible PC-12 cells, western blot) [µM]",poly-Q protein expression (Htt103Q-EGFP; scyllo-inositol up to 10 μM concentration),SMILES,"Aggregation (percentage of cells with aggregates versus total EGFP-positive cells) (HttQ103P-EGFP; 50 μM cystamine bitartrate as positive control, added simultaneously with induction)",Htt103Q-EGFP protein expression level (western blot) (Htt103Q-EGFP),"Cell viability, trypan blue exclusion assay (PC-12 cells)",Morphological examination of cells for changes associated with toxicity (PC-12 cells),"Aggregation (percentage of cells with aggregates versus total EGFP-positive cells) (HttQ103P-EGFP; scyllo-inositol 0-100 μM added simultaneously with induction, 5 μM ponasterone 48 hrs)","Aggregation (percentage of cells with aggregates versus total EGFP-positive cells) (HttQ103P-EGFP; scyllo-inositol 0-100 μM added simultaneously with induction, 5 μM ponasterone 48 hrs, listed as Scyllo-inositol)","Htt103Q-EGFP protein concentration (western blot, densitometry) (Htt103Q-EGFP; scyllo-inositol concentration series, normalized to GAPDH)"
did not alter poly-Q protein expression,–,–,–,–,"NCCSSCCN.O=C(O)C(O)C(O)C(=O)O (stereo not drawn) [cystamine bitartrate, reference compound]",inhibits aggregate formation; also recorded: aggregated poly-Q is decreased; also recorded: decreased aggregation of poly-Q,no effect on Htt103 cellular protein concentration; also recorded: did not change protein expression levels,–,–,–,–,–
–,1 to 100,1,25 to 100,did not alter poly-Q protein expression,O[C@H]1[C@H](O)[C@@H](O)[C@H](O)[C@@H](O)[C@@H]1O [scyllo-inositol],–,–,no effect on cell viability,did not detect changes associated with toxicity,concentration dependent effect of decreased aggregation,concentration dependent decrease in the formation of aggregates,concentration dependant decrease in Htt protein; also recorded: decreased the protein concentration
